Assay results: patent publication US8101774B2, “Ester derivatives and medicinal use thereof” (Japan Tobacco Inc., priority 2004, dated 2012)

Biological target: T1, Microsomal triglyceride transfer protein (MTP) from human small intestine microsome (Homo sapiens, UniProt P55157)
T1 construct: Human small intestine microsome was dialyzed against 10 mM phosphate buffer; tissue Tissue Transforming Technologies, Inc; host or cells: human small intestine microsome
Assay: Inhibition test of interliposomal triglyceride (TG) transfer activity by MTP
Format: biochemical
Conditions: purified MTP from human small intestine microsome, 37° C., 1.5 hours
Method: Microsomal triglyceride transfer protein (MTP) from human small intestine microsome (manufactured by Tissue Transforming Technologies, Inc.) was purified in such a way described below. Human small intestine microsome was dialyzed against 10 mM phosphate buffer (300 mL, pH 6.8) twice for about 2 hours and once for further not less than 12 hours, at about 4° C. After dialysis, the mixture was centrifuged at 4° C. and 15,000×g for 5 minutes and then the supernatant was recovered. The previously recovered supernatant was purified by column chromatography on diethylaminoethyl (DEAE) Sepharose using FPLC (Fast Performance Liquid Chromatography) system, and the purified MTP was used for the test as described below.
Small unilamellar-vesicle (SUV) liposome (hereinafter described as donor, containing 0.25% (mol/mol) triolein and 5% (mol/mol) cardiolipin) constituted by triolein labeled with ^14C and non-labeled SUV liposome (hereinafter described as acceptor, containing […] triolein) were prepared in such a way described below.
Firstly, in order to prepare the donor, there were volatilized under a stream of nitrogen gas a phosphatidylcholine solution containing phosphatidylcholine labeled with ^3H, a cardiolipin solution, and a triolein solution containing triolein labeled with ^14C (each solution had been already dissolved in an appropriate organic solvent), or in order to prepare the acceptor, there were volatilized under nitrogen flow a phosphatidylcholine solution containing phosphatidylcholine labeled with ^3H and a cardiolipin solution (each solution had been already dissolved in an appropriate organic solvent). An appropriate amount of a reaction buffer (15 mM Tris-HCl buffer containing 1 mM EDTA.Na2, 40 mM NaCl, and 0.5% (w/v) bovine serum albumin, pH 7.4) was added thereto to be emulsified. The emulsions were treated with ultrasonication under ice-cooling and centrifuged at 4° C. and 159,000×g for 2 hours. Each of the resulting supernatant was used for donor or acceptor.
Each radioactivity in the acceptor and the donor was measured by liquid scintillation counter, and a mixed solution of the acceptor and the donor was prepared with a reaction buffer so as to be a donor-derived radioactivity of 16,000 dpm/400 μL and a acceptor-derived radioactivity of 4,000 dpm/[…]. 400 μL of the mixed solution of the donor and the acceptor, 45 μL of the reaction buffer, 50 μL of MTP (20 μg/mL), and 5 μL of a sample dissolved in DMSO (dimethyl sulfoxide) or 5 μL of DMSO was mixed (total amount: 500 μL). The mixture was incubated at 37° C. for 1.5 hours. After completion of the incubation, 1.25 mL of a suspension of DEAE cellulose (66.7% (v/v)) in 15 mM Tris-HCl buffer (pH 7.4) containing 1 mM EDTA.Na2 was added to the above solution. The mixture was centrifuged to separate the donor (adsorbed on the DEAE cellulose to precipitate) and the acceptor (the supernatant). The radioactivity in the acceptor was measured by liquid scintillation counter. The value obtained by subtracting the radioactivity in a blank group from the radioactivity in the acceptor of a DMSO group was determined as MTP-mediated TG transfer activity, and it was compared with the value obtained by subtracting the radioactivity in the blank group from the radioactivity in a sample group. Here, the blank was prepared by adding 10 mM phosphate buffer (pH 6.8) containing 250 mM NaCl in place of MTP. Inhibition rate (%) was calculated from values obtained according to the following equation. Inhibition rate(%)=(1 minus((radioactivity of sample group minus radioactivity of blank group)/(radioactivity of DMSO group minus radioactivity of blank group)))×100.
50% Inhibition rate (IC50) was determined on the basis of the above equation.

T1 sequence (P55157 19-894): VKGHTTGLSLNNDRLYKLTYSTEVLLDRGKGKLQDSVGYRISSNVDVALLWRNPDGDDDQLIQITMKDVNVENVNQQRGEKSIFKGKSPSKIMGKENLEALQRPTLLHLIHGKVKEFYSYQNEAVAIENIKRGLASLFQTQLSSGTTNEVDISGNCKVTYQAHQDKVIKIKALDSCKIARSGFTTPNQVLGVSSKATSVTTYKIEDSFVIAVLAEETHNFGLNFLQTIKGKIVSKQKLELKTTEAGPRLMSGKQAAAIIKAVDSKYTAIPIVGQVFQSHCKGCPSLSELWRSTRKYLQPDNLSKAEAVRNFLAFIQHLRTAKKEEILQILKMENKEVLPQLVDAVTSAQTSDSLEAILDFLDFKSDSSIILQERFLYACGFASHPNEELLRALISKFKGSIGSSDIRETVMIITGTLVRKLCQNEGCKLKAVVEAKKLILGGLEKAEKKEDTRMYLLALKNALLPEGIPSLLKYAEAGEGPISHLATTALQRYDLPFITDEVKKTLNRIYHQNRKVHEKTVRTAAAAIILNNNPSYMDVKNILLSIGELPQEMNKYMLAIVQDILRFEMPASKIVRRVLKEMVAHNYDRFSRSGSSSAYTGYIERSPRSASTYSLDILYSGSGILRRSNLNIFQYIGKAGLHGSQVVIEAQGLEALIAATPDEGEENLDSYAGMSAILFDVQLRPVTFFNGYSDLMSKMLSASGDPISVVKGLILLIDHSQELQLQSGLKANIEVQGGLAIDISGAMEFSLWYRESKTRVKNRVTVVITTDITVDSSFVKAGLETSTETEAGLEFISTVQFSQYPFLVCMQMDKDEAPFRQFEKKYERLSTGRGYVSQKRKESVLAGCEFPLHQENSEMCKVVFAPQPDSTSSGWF
T1 sequence (P07237 18-508 partner): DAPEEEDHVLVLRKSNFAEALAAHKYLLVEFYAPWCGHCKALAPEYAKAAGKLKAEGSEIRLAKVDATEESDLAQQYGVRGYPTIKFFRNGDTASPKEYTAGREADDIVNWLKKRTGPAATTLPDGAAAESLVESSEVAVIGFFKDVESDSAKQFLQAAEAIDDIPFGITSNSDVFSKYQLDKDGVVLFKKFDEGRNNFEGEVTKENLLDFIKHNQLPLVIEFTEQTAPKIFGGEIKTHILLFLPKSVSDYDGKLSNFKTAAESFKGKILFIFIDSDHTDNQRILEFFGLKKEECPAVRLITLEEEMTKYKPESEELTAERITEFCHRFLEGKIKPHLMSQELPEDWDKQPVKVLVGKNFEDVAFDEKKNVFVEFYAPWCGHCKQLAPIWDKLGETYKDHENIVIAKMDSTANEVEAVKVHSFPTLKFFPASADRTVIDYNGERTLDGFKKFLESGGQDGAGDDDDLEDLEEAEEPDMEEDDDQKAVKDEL

Row | IC50 [nM] | Structure (SMILES)
1 | < 10 | CCOC(=O)c1cc(OC)c(OC(=O)CCCc2ccc(NC(=O)c3ccc(C)nc3-c3ccc(C(F)(F)F)cc3)c(C(=O)N(C)C)c2)c(C(=O)OC)c1 [Compound 1-54, 4-[4-(3-dimethylcarbamoyl-4-{[6-methyl-2-(4-trifluoromethylphenyl)pyridine-3-carbonyl]amino}phenyl)butyryloxy]-5-methoxyisophthalic acid 1-ethyl ester 3-methyl ester]
2 | < 10 | CN(C)C(=O)c1cc(CCCC(=O)Oc2ccc(C(=O)OC3CCc4ccccc43)cc2)ccc1NC(=O)c1ccccc1-c1ccc(C(F)(F)F)cc1 (centres unmarked) [Compound 1-107, 4-[4-(3-dimethylcarbamoyl-4-{(4′-trifluoromethylbiphenyl-2-carbonyl)amino}phenyl)butyryloxy]benzoic acid indan-1-yl ester]
3 | < 10 | Cc1ccc(C(=O)Nc2ccc(CCCC(=O)Oc3ccc(C(=O)OCc4ccccc4)cc3)cc2C(=O)N(C)C)c(-c2ccc(C(F)(F)F)cc2)n1 [Compound 1-80, 4-[4-(3-dimethylcarbamoyl-4-{[6-methyl-2-(4-trifluoromethylphenyl)pyridine-3-carbonyl]amino}phenyl)butyryloxy]benzoic acid benzyl ester]
4 | < 10 | CCOc1cc(C(=O)OC)cc(OC)c1OC(=O)CCCc1ccc(NC(=O)c2ccc(C)nc2-c2ccc(C(F)(F)F)cc2)c(C(=O)N(C)C)c1 [Compound 1-49, 4-[4-(3-dimethylcarbamoyl-4-{[6-methyl-2-(4-trifluoromethylphenyl)pyridine-3-carbonyl]amino}phenyl)butyryloxy]-3-ethoxy-5-methoxybenzoic acid methyl ester]
5 | < 10 | CN(C)C(=O)c1cc(CCCC(=O)Oc2ccc(C(=O)OCC(=O)OCc3ccccc3)cc2)ccc1NC(=O)c1ccccc1-c1ccc(C(F)(F)F)cc1 [Compound 1-78]
6 | 100 to 1000 | CN(C)C(=O)c1cc(CC(=O)Oc2ccccc2)ccc1NC(=O)c1ccccc1-c1ccc(C(F)(F)F)cc1 [Compound 1-3, {3-dimethylcarbamoyl-4-[(4′-trifluoromethylbiphenyl-2-carbonyl)amino]phenyl}acetic acid phenyl ester]
7 | < 10 | CCOC(=O)c1cc(OC)c(OC(=O)CCCc2ccc(NC(=O)c3ccc(C)nc3-c3ccc(C(F)(F)F)cc3)c(C(=O)N(C)C)c2)c(OC)c1 [Compound 1-43, 4-[4-(3-dimethylcarbamoyl-4-{[6-methyl-2-(4-trifluoromethylphenyl)pyridine-3-carbonyl]amino}phenyl)butyryloxy]-3,5-dimethoxybenzoic acid ethyl ester]
8 | 100 to 1000 | COC(=O)c1ccc(OC(=O)CCCc2ccc(NC(=O)c3ccc(C)nc3-c3ccc(C(F)(F)F)cc3)c(C(=O)N(C)C)c2)cn1 [Compound 1-32, 5-[4-(3-dimethylcarbamoyl-4-{[6-methyl-2-(4-trifluoromethylphenyl)pyridine-3-carbonyl]amino}phenyl)butyryloxy]pyridine-2-carboxylic acid methyl ester]
9 | < 10 | Cc1ccc(C(=O)Nc2ccc(CCCC(=O)Oc3ccc(C(=O)OCc4cccnc4)cc3)cc2C(=O)N(C)C)c(-c2ccc(C(F)(F)F)cc2)n1 [Compound 1-94, 4-[4-(3-dimethylcarbamoyl-4-{[6-methyl-2-(4-trifluoromethylphenyl)pyridine-3-carbonyl]amino}phenyl)butyryloxy]benzoic acid pyridin-3-ylmethyl ester]
10 | < 10 | CN(C)C(=O)c1cc(CCCC(=O)Oc2ccc(C(=O)OCc3ccccn3)cc2)ccc1NC(=O)c1ccccc1-c1ccc(C(F)(F)F)cc1 [Compound 1-82, 4-[4-(3-dimethylcarbamoyl-4-{(4′-trifluoromethylbiphenyl-2-carbonyl)amino}phenyl)butyryloxy]benzoic acid pyridin-2-ylmethyl ester]
11 | < 10 | COC(=O)c1ccc(-c2nc(C)ccc2C(=O)Nc2ccc(CCCC(=O)Oc3c(Cl)cc(C(=O)OC)cc3OC)cc2C(=O)N(C)C)cc1 [Compound 4-4, 3-chloro-4-[4-(3-dimethylcarbamoyl-4-{[2-(4-methoxycarbonylphenyl)-6-methylpyridine-3-carbonyl]amino}phenyl)butyryloxy]-5-methoxybenzoic acid methyl ester]
12 | < 10 | CC(C)OC(=O)c1ccc(OC(=O)CCCc2ccc(NC(=O)c3ccccc3-c3ccc(C(F)(F)F)cc3)c(C(=O)N(C)C)c2)cc1 [Compound 1-7, 4-(4-{3-dimethylcarbamoyl-4-[(4′-trifluoromethylbiphenyl-2-carbonyl)amino]phenyl}butyryloxy)benzoic acid isopropyl ester]
13 | < 10 | CN(C)C(=O)c1cc(CCCC(=O)Oc2ccc(-c3nnn(CC(=O)OCc4ccccc4)n3)cc2)ccc1NC(=O)c1ccccc1-c1ccc(C(F)(F)F)cc1 [Compound 1-104, 4-(3-dimethylcarbamoyl-4-{(4′-trifluoromethylbiphenyl-2-carbonyl)amino}phenyl)butyric acid 4-(2-benzyloxycarbonylmethyl-2H-tetrazol-5-yl)phenyl ester]
14 | < 10 | CN(C)C(=O)c1cc(CCCC(=O)Oc2ccc(C(=O)OCCCOCc3ccccc3)cc2)ccc1NC(=O)c1ccccc1-c1ccc(C(F)(F)F)cc1 [Compound 1-90, 4-[4-(3-dimethylcarbamoyl-4-{(4′-trifluoromethylbiphenyl-2-carbonyl)amino}phenyl)butyryloxy]benzoic acid 3-benzyloxypropyl ester]
15 | < 10 | COC(=O)c1cc(OC)c(OC(=O)CCCc2ccc(NC(=O)c3ccc(C)nc3-c3ccc(C(F)(F)F)cc3)c(C(=O)N(C)C)c2)c(C(=O)OC)c1 [Compound 1-53, 4-[4-(3-dimethylcarbamoyl-4-{[6-methyl-2-(4-trifluoromethylphenyl)pyridine-3-carbonyl]amino}phenyl)butyryloxy]-5-methoxyisophthalic acid dimethyl ester]
16 | < 10 | COC(=O)c1cc(C(=O)OC(C)C)cc(C)c1OC(=O)CCCc1ccc(NC(=O)c2ccc(C)nc2-c2ccc(C(F)(F)F)cc2)c(C(=O)N(C)C)c1 [Compound 1-111, 4-[4-(3-dimethylcarbamoyl-4-{[6-methyl-2-(4-trifluoromethylphenyl)pyridine-3-carbonyl]amino}phenyl)butyryloxy]-5-methylisophthalic acid 1-isopropyl ester 3-methyl ester]
17 | < 10 | CN(C)C(=O)c1cc(CCCC(=O)Oc2ccc(-c3nnn(C)n3)cc2)ccc1NC(=O)c1ccccc1-c1ccc(C(F)(F)F)cc1 [Compound 1-95, 4-(3-dimethylcarbamoyl-4-{(4′-trifluoromethylbiphenyl-2-carbonyl)amino}phenyl)butyric acid 4-(2-methyl-2H-tetrazol-5-yl)phenyl ester]
18 | < 10 | CCC(=O)c1ccc(OC(=O)CCCc2ccc(NC(=O)c3ccccc3-c3ccc(C(F)(F)F)cc3)c(C(=O)N(C)C)c2)cc1 [Compound 1-88, 4-(3-dimethylcarbamoyl-4-{(4′-trifluoromethylbiphenyl-2-carbonyl)amino}phenyl)butyric acid 4-propionylphenyl ester]
19 | < 10 | COC(=O)c1ccc(OC(=O)CCCc2ccc(NC(=O)c3ccccc3-c3ccc(C(F)(F)F)cc3)c(C(=O)N(C)C)c2)c(C(=O)OC)c1 [Compound 1-33, 4-(4-{3-dimethylcarbamoyl-4-[(4′-trifluoromethylbiphenyl-2-carbonyl)amino]phenyl}butyryloxy)isophthalic acid dimethyl ester]

Row | Structure (SMILES) | IC50 [nM]
20 | COC(=O)c1ccc(OC(=O)CN(C)Cc2ccc(NC(=O)c3ccccc3-c3ccc(C(F)(F)F)cc3)c(C(=O)N(C)C)c2)cc1 [Compound 2-1, 4-[2-({3-dimethylcarbamoyl-4-[(4′-trifluoromethylbiphenyl-2-carbonyl)amino]benzyl}methylamino)acetoxy]benzoic acid methyl ester] | 10 to 100
